The subject of one series is Staphylococcus aureus. The series is described as follows: Antibacterial activity against multi drug-resistant Staphylococcus aureus USA300 FPR3757 assessed as inhibition of visible growth incubated for 20 to 24 hrs by microbroth serial dilution assay. The format is functional. The note with it: time 20-24 hrs, read-out: MIC100. For orientation: Broth dilution looks for growth in wells or tubes with falling amounts of substance.

The subject of a further series is Streptococcus pneumoniae. The series is described as follows: Antibacterial activity against Streptococcus pneumoniae assessed as inhibition of visible growth incubated for 20 to 24 hrs by microbroth serial dilution assay. The format is functional. The note with it: time 20-24 hrs, read-out: MIC100.
In the next series the test system is Enterococcus faecalis. The series is described as follows: Antibacterial activity against Enterococcus faecalis assessed as inhibition of visible growth incubated for 20 to 24 hrs by microbroth serial dilution assay. The class given is functional. The note with it: time 20-24 hrs, read-out: MIC100.
In series [1] the test system is Enterococcus faecium. Kind of series: Antibacterial activity against Vancomycin-resistant Enterococcus faecium assessed as inhibition of visible growth incubated for 20 to 24 hrs by microbroth serial dilution assay. The format is functional. The note with it: time 20-24 hrs, read-out: MIC100.
Series [2] deals with Enterococcus faecium. Kind of series: Antibacterial activity against Linezolid/Ampicillin/ciprofloxacin/Vancomycin-resistant Enterococcus faecium assessed as inhibition of visible growth incubated for 20 to 24 hrs by microbroth serial dilution assay. The class given is functional. The note with it: time 20-24 hrs, read-out: MIC100.
A short description of series [3]: Solubility of the compound in Dulbecco's PBS at 20 degree C measured after 24 hrs.
Series [4] is described as follows: Inhibition of P-gp efflux in MDCKII-MDR1 cells using calcein-AM as substrate assessed as intracellular calcein fluorescence preincubated for 15 mins followed by substrate addition and measured by fluorescence based assay. The class given is cell-based. The note with it: Canis lupus familiaris.
The subject of another series is MDCK-MDR1. Kind of series: Cytotoxicity against MDCKII-MDR1 cells assessed as cell viability at 100 uM measured by MTT assay. The class given is toxicity, cell-based, Canis lupus familiaris. The note with it: dog, mdck-mdr1, 100 µM. For orientation: Formazan colour is commonly taken as a measure of viable cells.
Series [5] can be described thus: in vitro. The note with it: mouse.
Series [6] in a line: in vitro. The note with it: mouse. The source holds these as a separate data set.
Series [7] in a line: in vitro. The note with it: human.
A short description of series [8]: in vitro. The note with it: human. This is another data set of the same source.
In a further series the test system is Escherichia coli. The series is described as follows: Antibacterial activity against Escherichia coli assessed as inhibition of visible growth incubated for 20 to 24 hrs by microbroth serial dilution assay. The class given is functional, organism-based. The note with it: time 20-24 hrs.
The test system of another series is Listeria. Kind of series: Antibacterial activity against Listeria assessed as inhibition of visible growth incubated for 20 to 24 hrs by microbroth serial dilution assay. The format is functional, organism-based. The note with it: time 20-24 hrs.
Series [9] deals with Staphylococcus epidermidis. The series is described as follows: Antibacterial activity against Staphylococcus epidermidis assessed as inhibition of visible growth incubated for 20 to 24 hrs by microbroth serial dilution assay. The format is functional, organism-based. The note with it: time 20-24 hrs.
Series [10] in a line: in vitro. The note with it: pig.
Series [11] in a line: in vitro. The note with it: pig. The source holds these as a separate data set.

As usually defined, the solubility is the concentration that dissolves in the medium under given conditions. Read a high solubility as a readily soluble substance. As usually defined, the IC50 is the point on the concentration scale where inhibition reaches its midpoint. The half-life is the time needed for the level to fall by half in the phase considered. A lower half-life goes with rapid decline. By CLint scaled is commonly meant a measure of how fast metabolising enzymes remove a compound, apart from limits set by blood flow. High values mean faster metabolism, low ones greater metabolic stability.

The structures appear in SMILES notation. Converted amounts (≈) assume the structure as drawn. The source made the active and inactive calls. Where only a bound is given, the exact number is not on record here.

On to `C=C[C@]1(C)C[C@@H](OC(=O)Cn2cc(-c3ccc([C@H](C)n4cnc5c(N6CCNCC6)ncnc54)cc3)nn2)[C@]2(C)[C@H](C)CC[C@]3(CCC(=O)[C@H]32)[C@@H](C)[C@@H]1O`, for which the MIC with Staphylococcus aureus, in the series on Streptococcus pneumoniae, in the series on Enterococcus faecalis, in the series on Enterococcus faecium [1] and in the series on Enterococcus faecium [2] was 0.5 µg/mL (≈ 0.679 µM) throughout.
In series [3], `C=C[C@]1(C)C[C@@H](OC(=O)Cn2cc(-c3ccc(Cn4cnc5c(N)ncnc54)nc3)nn2)[C@]2(C)[C@H](C)CC[C@]3(CCC(=O)[C@H]32)[C@@H](C)[C@@H]1O` displayed a solubility at 24 h of 6.7 µM (≈ 4.38 µg/mL). In addition, the half-maximal inhibitory concentration (IC50) in series [4] was 98 µM. Also, the MIC with Staphylococcus aureus was 0.03 µg/mL (≈ 0.0459 µM); in the series on Streptococcus pneumoniae it was 0.25 µg/mL (≈ 0.382 µM); with Enterococcus faecalis, 0.25 µg/mL (≈ 0.382 µM); in the series with Enterococcus faecium [1], 0.12 µg/mL (≈ 0.184 µM); with Enterococcus faecium [2], 0.12 µg/mL (≈ 0.184 µM). Further, in the series with MDCK-MDR1, the Activity result is given as “Non-Toxic”. Also, the values for the half-life at 0.5 h, 1 µM in “in vitro [5]” (liver microsomes) and in “in vitro [7]” (liver microsomes) were 0.58 min and 1.9 min, respectively. Besides, the CLint scaled at 0.5 h, 1 µM stood at 571 L/h/kg in the series “in vitro [6]” (liver microsomes) and 194 L/h/kg in the series “in vitro [8]” (liver microsomes).
Consider `C=C[C@]1(C)C[C@@H](OC(=O)Cn2cc(-c3ccc([C@@H](C)n4cnc5c(N6CCNCC6)ncnc54)cc3)nn2)[C@]2(C)[C@H](C)CC[C@]3(CCC(=O)[C@H]32)[C@@H](C)[C@@H]1O`, for which the concentration in solution in series [3] (solubility at 24 h) was 10 µM (≈ 7.36 µg/mL). The IC50 in series [4] was 7 µM. Also, the MIC turned out to be 0.25 µg/mL (≈ 0.34 µM) in the series with Staphylococcus aureus; 0.25 µg/mL (≈ 0.34 µM) with Streptococcus pneumoniae; 0.5 µg/mL (≈ 0.679 µM) in the series on Enterococcus faecalis; 0.25 µg/mL (≈ 0.34 µM) in the series on Enterococcus faecium [1]; 0.25 µg/mL (≈ 0.34 µM) in the series with Enterococcus faecium [2].
On to `C=C[C@]1(C)C[C@@H](OC(=O)Cn2cc(-c3ccc(Cn4cnc5c(N6CCN(C)CC6)ncnc54)cc3)nn2)[C@]2(C)[C@H](C)CC[C@]3(CCC(=O)[C@H]32)[C@@H](C)[C@@H]1O`, for which the IC50 in series [4] is 2 µM. Besides, the MIC with Streptococcus pneumoniae and in the series with Enterococcus faecium [2] was 0.12 µg/mL (≈ 0.163 µM) each time. The outcome (in the series with Escherichia coli; in the series on Listeria; in series [9]) was inactive. The Activity result in the series with MDCK-MDR1 is “Non-Toxic”. The half-life at 0.5 h, 1 µM in the series “in vitro [5]” (liver microsomes) came to 1.1 min; in “in vitro [7]” (liver microsomes), 1.4 min; in “in vitro [10]” (liver microsomes) it was 0.5 min. The CLint scaled at 0.5 h, 1 µM amounted to 293 L/h/kg in the series “in vitro [6]” (liver microsomes), 266 L/h/kg in the series “in vitro [8]” (liver microsomes) and 630 L/h/kg in the series “in vitro [11]” (liver microsomes).
For `O=C(O)Cc1ccccc1Nc1c(Cl)cccc1Cl` [DICLOFENAC], the half-life at 0.5 h, 1 µM came to 51.7 min in “in vitro [5]” (microsomes), 18.8 min in the series “in vitro [7]” (microsomes) and 37.9 min in “in vitro [10]” (microsomes). Besides, the figures for the CLint scaled at 0.5 h, 1 µM in “in vitro [6]” (microsomes), in “in vitro [8]” (microsomes) and in “in vitro [11]” (microsomes) were 6.36 L/h/kg, 19.9 L/h/kg and 8.7 L/h/kg, respectively.
On to `C=C[C@]1(C)C[C@@H](OC(=O)Cn2cc(-c3ccc(Cn4cnc5c(N)ncnc54)c(OC)c3)nn2)[C@]2(C)[C@H](C)CC[C@]3(CCC(=O)[C@H]32)[C@@H](C)[C@@H]1O`, for which the solubility at 24 h in series [3] came to 2.2 µM (≈ 1.5 µg/mL). The IC50 in [4] is 46 µM. Further, the MIC in the series on Staphylococcus aureus came out at 0.06 µg/mL (≈ 0.0879 µM); in the series on Streptococcus pneumoniae it was 0.25 µg/mL (≈ 0.366 µM); with Enterococcus faecalis, 0.25 µg/mL (≈ 0.366 µM); in the series with Enterococcus faecium [1], 0.12 µg/mL (≈ 0.176 µM); in the series with Enterococcus faecium [2], 0.12 µg/mL (≈ 0.176 µM).
For `C=C[C@]1(C)C[C@@H](OC(=O)Cn2cc(-c3ccc([C@@H](C)n4cnc5c(N)ncnc54)cc3)nn2)[C@]2(C)[C@H](C)CC[C@]3(CCC(=O)[C@H]32)[C@@H](C)[C@@H]1O`, the solubility at 24 h in series [3] is 2.6 µM (≈ 1.73 µg/mL). In series [4], the IC50 is 50 µM. Further, the MIC in the series with Staphylococcus aureus is 0.12 µg/mL (≈ 0.18 µM); in the series with Streptococcus pneumoniae, 0.25 µg/mL (≈ 0.375 µM); with Enterococcus faecalis it was 0.5 µg/mL (≈ 0.75 µM); in the series on Enterococcus faecium [1] it was 0.25 µg/mL (≈ 0.375 µM); in the series on Enterococcus faecium [2] it was 0.25 µg/mL (≈ 0.375 µM).
For the molecule `C=C[C@]1(C)C[C@@H](OC(=O)Cn2cc(-c3ccc(Cn4cnc5c(N)ncnc54)c(O)c3)nn2)[C@]2(C)[C@H](C)CC[C@]3(CCC(=O)[C@H]32)[C@@H](C)[C@@H]1O`, in [3], the concentration in solution (solubility at 24 h) was 2.5 µM (≈ 1.67 µg/mL). The half-maximal inhibitory concentration (IC50) in [4] was above 100 µM. For the same molecule, the MIC in the series with Staphylococcus aureus is 0.03 µg/mL (≈ 0.0449 µM); with Streptococcus pneumoniae, 0.25 µg/mL (≈ 0.374 µM); in the series with Enterococcus faecalis, 0.25 µg/mL (≈ 0.374 µM); with Enterococcus faecium [1], 0.25 µg/mL (≈ 0.374 µM); with Enterococcus faecium [2], 0.25 µg/mL (≈ 0.374 µM). Also, the Activity entry in the series with MDCK-MDR1 is reported as “Non-Toxic”. In addition, the half-life at 0.5 h, 1 µM in “in vitro [5]” (liver microsomes) worked out at 0.56 min; in the series “in vitro [7]” (liver microsomes), 1.2 min. In addition, the values for the CLint scaled at 0.5 h, 1 µM in the series “in vitro [6]” (liver microsomes) and in the series “in vitro [8]” (liver microsomes) were 586 L/h/kg and 317 L/h/kg, respectively.
With `C=C[C@]1(C)C[C@@H](OC(=O)Cn2cc(-c3ccc(Cn4cnc5c(N)nc(N)nc54)cc3)nn2)[C@]2(C)[C@H](C)CC[C@]3(CCC(=O)[C@H]32)[C@@H](C)[C@@H]1O`, the solubility at 24 h in [3] was found to be 1.9 µM (≈ 1.27 µg/mL). Besides, the IC50 in series [4] was above 100 µM. In addition, the MIC with Staphylococcus aureus was found to be 0.06 µg/mL (≈ 0.0898 µM); with Streptococcus pneumoniae, 0.5 µg/mL (≈ 0.749 µM); in the series on Enterococcus faecalis, 0.25 µg/mL (≈ 0.374 µM); in the series on Enterococcus faecium [1], 0.12 µg/mL (≈ 0.18 µM); with Enterococcus faecium [2] it was 0.12 µg/mL (≈ 0.18 µM). Moreover, in the series on MDCK-MDR1, the Activity entry is “Non-Toxic”.
`C=C[C@]1(C)C[C@@H](OC(=O)Cn2cc(-c3ccc([C@H](C)n4cnc5c(N)ncnc54)cc3)nn2)[C@]2(C)[C@H](C)CC[C@]3(CCC(=O)[C@H]32)[C@@H](C)[C@@H]1O`: in [4], the IC50 was 81 µM. The MIC in the series with Staphylococcus aureus turned out to be 0.12 µg/mL (≈ 0.18 µM); in the series on Streptococcus pneumoniae it was 1 µg/mL (≈ 1.5 µM); in the series on Enterococcus faecalis, 1 µg/mL (≈ 1.5 µM); with Enterococcus faecium [1], 0.5 µg/mL (≈ 0.75 µM); with Enterococcus faecium [2], 0.5 µg/mL (≈ 0.75 µM).
In turn, `C=C[C@]1(C)C[C@@H](OC(=O)Cn2cc(-c3ccc(Cn4cnc5c(N6CCNCC6)ncnc54)cc3)nn2)[C@]2(C)[C@H](C)CC[C@]3(CCC(=O)[C@H]32)[C@@H](C)[C@@H]1O` came in with a solubility at 24 h in [3] of 31 µM (≈ 22.4 µg/mL). In addition, in series [4], the IC50 was 10 µM. Besides, the MIC in the series with Staphylococcus aureus was found to be 0.25 µg/mL (≈ 0.346 µM); in the series with Streptococcus pneumoniae, 0.25 µg/mL (≈ 0.346 µM); in the series on Enterococcus faecalis, 0.25 µg/mL (≈ 0.346 µM); in the series on Enterococcus faecium [1] it was 0.06 µg/mL (≈ 0.0831 µM); in the series with Enterococcus faecium [2], 0.12 µg/mL (≈ 0.166 µM).

The values above are taken from ChEMBL document CHEMBL5518206, “Hit-to-Lead Identification and Validation of a Triaromatic Pleuromutilin Antibiotic Candidate” (J Med Chem, 2024).
